# Reference: the SangsterLogP compilation
# Details: pH 7.4
row,logD,Structure (SMILES)
1,3.38,COc1ccc(CC(CC(=O)N2CCN(C)CC2)C(=O)NC(Cc2cscn2)C(=O)NC(CC2CCCCC2)C(O)C(O)CC(C)C)cc1 (stereo not given)
2,3.51,CC(C)CC(O)C(CC1CCCCC1)NC(=O)C(Cc1c[nH]cn1)NC(=O)C(CC(=O)N1CCOCC1)Cc1ccccc1 (stereo not given)
3,3.71,CC(C)CC(O)C(CC1CCCCC1)NC(=O)C(Cc1cn(C)cn1)NC(=O)C(CC(=O)N1CCOCC1)Cc1ccccc1 (stereo not given)
4,4.27,CC(C)CC(O)C(CC1CCCCC1)NC(=O)C(Cc1cscn1)NC(=O)C(CC(=O)N1CCOCC1)Cc1ccccc1 (stereo not given)
5,1.66,CC(C)CC(O)C(O)C(CC1CCCCC1)NC(=O)C(NC(=O)C(CC(=O)N1CCN(C)CC1)Cc1ccccc1)c1c[nH]cn1 (stereo not given)
6,4.02,CC(C)CC(O)C(O)C(CC1CCCCC1)NC(=O)C(NC(=O)C(CC(=O)N1CCN(C)CC1)Cc1ccccc1)c1cc[nH]n1 (stereo not given)

# Further lines, the compound ahead of its results:
row,Structure (SMILES),logD
1,CC(C)CC(O)C(CC1CCCCC1)NC(=O)C(Cc1cc[nH]n1)NC(=O)C(CC(=O)N1CCCOCC1)Cc1ccccc1 (stereo not given),4.01
2,CC(C)CC(O)C(CC1CCCCC1)NC(=O)C(Cn1ccnc1)NC(=O)C(CC(=O)N1CCOCC1)Cc1ccccc1 (stereo not given),3.79
3,CC(C)CC(O)C(CC1CCCCC1)NC(=O)C(CN=[N+]=[N-])NC(=O)C(CC(=O)N1CCCOCC1)Cc1ccccc1 (stereo not given),4.1
4,CC(C)CC(O)C(O)C(CC1CCCCC1)NC(=O)C(Cc1cscn1)NC(=O)C(CC(=O)CN1CCCOCC1)Cc1ccccc1 (stereo not given),3.91
